Data set [1] concerns S. aureus BAA44. Nature of the data set: Acute infection of osteoblastic MG63 cells without lysostaphin, CFU per well of intracellular and adhered bacteria. It is filed as cell-based, Staphylococcus aureus. Conditions: for effect on CFU per well of intracellular and adhered S. aureus BAA44: 18 h, FIG. 6. As to the method:
(§1) Osteoblastic MG63 cells were detached with the cell detachment medium Accutase 24 hours before infection. The cell number was determined using the Neubauer counting chamber. Cells were seeded onto uncoated 24 well plates with a cell density of 1.5×10^4 cells/cm^2 in 1 ml DMEM (Dulbecco's Modified Eagle's Medium) with 10% FCS (fetal calf serum), 1% Glutamax-I and 1% Natrium Pyruvat and incubated at 37° C. and 5% CO2.
The cell culture supernatant of the osteoblastic MG63 cells was removed with a pipette from the wells. 1 ml containing 1×10^6 S. aureus BAA44 CFU was added to each well containing also antibiotics having the following compositions: • 50 μg/ml vancomycin • 2.5 μg/ml rifampin • 1.25-10 μg/ml daptomycin • and their mixtures in different ratios as given below.
The combined osteoblastic cells, bacteria, and antibiotic compositions were incubated for 18 h at 37° C. under 5% CO2 atmosphere.
Afterwards the cells were washed once with PBS pH 7.4 (phosphate buffer solution) followed by lysis with 1 ml 0.1% Triton X100 in ringer's solution. The lysates were thoroughly resuspended with a pipette. Only one 24 well plate was handled and the other plates were stored at 4° C. in order to minimize bacterial growth in the lysate.
(§2) The lower the CFU value is the lower is the infection rate of the osteoblastic cells with S. aureus BAA44. This correlates to the efficacy of the added antibiotic.

In data set [2] the test system is S. aureus ATTC 6538P. The data set can be described thus: Extracellular infection of osteoblastic MG63 cells, CFU in cell culture supernatant. It counts as cell-based, Staphylococcus aureus. To be noted: 24 h; 100 μg/ml gentamicin, 1 μg/ml rifampin, 100 μg/ml fosfomycin disodium, alone or combined with rifampin; FIG. 1. As to the method: as §1
The cell culture supernatant of the osteoblastic MG63 cells was removed with a pipette from the wells. 1 ml containing 1×10^6 S. aureus ATTC 6538P cells was added to each well. Two 24 well plates were incubated with S. aureus ATTC 6538P. The combined osteoblastic cells and bacteria were incubated for 1.5 h at 37° C. under 5% CO2 atmosphere. The presence of bacteria was determined using a microscope.
After 1.5 h the supernatant was removed and the wells were carefully washed twice with 37° C. warm DMEM without additives. It was microscopically checked, if not too many cells were detached during the washing procedure.
After incubation for 24 h, 100 μl of the cell culture supernatant was streaked out on Caso agar plates (Casein-peptone soymeal-peptone broth) directly, e.g. in case of rifampin, fosfomycin, rifampin/fosfomycin and rifmpicin/gentamicin, or after appropriate dilution, e.g. 1:100 in case of gentamicin, and incubated overnight at 37° C. […]

Data set [3] deals with S. aureus BAA44. Described as above. It counts as cell-based, Staphylococcus aureus. To be noted: 24 h; 100 μg/ml vancomycin, 10 μg/ml rifampin, 100 μg/ml fosfomycin, alone or combined with rifampin; rifampin resistant MRSA strain; FIG. 2. Here is the method:
Following antibiotics were used: • 100 μg/ml vancomycin • 10 μg/ml rifampin • 100 μg/ml fosfomycin • 10 μg/ml rifampin+100 μg/ml fosfomycin • 10 μg/ml rifampin+100 μg/ml vancomycin.
After incubation for 24 h 100 μl of the cell culture were streaked out on Caso agar plates (Casein-peptone soymeal-peptone broth) directly, e.g. in case of vancomycin, rifampin/fosfomycin and rifampin/vancomycin, or after appropriate dilution, e.g. 1:100 in case of rifampin and fosfomycin, and incubated overnight at 37° C. The supernatant of two wells per group was streaked out.

For data set [4], the system named is S. aureus BAA44 in osteoblastic MG63 cells. The data set can be described thus: Intracellular infection of osteoblastic MG63 cells after lysostaphin, cell lysis and intracellular CFU count. To be noted: 24 h; fosfomycin 50-400 μg/ml, rifampin 2.5-40 μg/ml, mixtures in varying ratios; FIG. 4a-g. It counts as cell-based, Staphylococcus aureus. As to the method: Only one 24 well plate was handled and the other plates were stored at 4° C. in order to minimize bacterial growth in the lysate.
as §2

The conditions of data set [5]: in vivo; cited from earlier work.
Data set [6] relates to S. aureus ATTC 6538P in osteoblastic MG63 cells. Nature of the data set: Intracellular infection of osteoblastic MG63 cells after lysostaphin, metabolic activity (MTT, absorbance 540 nm). To be noted: 24 h.
A further data set deals with S. aureus. To be noted: drug concentration-dependent; cited from earlier work.
The test system of data set [7] is S. aureus BAA44. Nature of the data set: Adhesion of bacteria on coated titanium discs, CFU per disc. Conditions: 1.5 h, 200 μg/cm^2 vancomycin or 50 μg/cm^2 rifampin + 200 μg/cm^2 fosfomycin calcium, FIG. 5c. It counts as cell-based, Staphylococcus aureus. As to the method: The experimental set up was essentially the same as described above for S. aureus ATTC 6538P.
The coated titanium discs were washed either once or twice with 5 ml PBS before incubation with S. aureus BAA44 for 1.5 h.

Data set [8] relates to S. aureus BAA44. Nature of the data set: Bactericidal activity of coated titanium discs in Minimal Medium, CFU in supernatant and on discs. It is filed as cell-based, Staphylococcus aureus. Conditions: 15.5 h in Minimal Medium, discs washed three times. Here is the method: The bacterial density was determined photometrically.
The Minimal Medium was used instead of Caso Bouillon to minimize the bacterial growth.
Afterwards the CFU in the supernatant as well as the adhered bacteria on the titanium discs were analysed. The supernatant was diluted 1:10 in PBS, 100 μl of the dilution were streaked out on Caso agar plates.

In data set [9] the test system is S. aureus ATTC 6538P. Conditions: 200 μg/cm^2 vancomycin, FIG. 5a.
Method: An overnight culture of S. aureus ATTC 6538P was prepared by infecting 5 ml Caso-Bouillon medium with S. aureus ATTC 6538P. The cultures were incubated with shaking (450 U/min) over night at 37° C. 100 μl of the overnight cultures were transferred into 5 ml Caso Boulillon medium and incubated for 2 h at 37° C. with shaking (450 U/min). The bacterial density was determined photometrically. The bacterial suspension was diluted 1:2 in Caso Bouillon prior measurement. A bacterial suspension with a density of 1×10^5 CFU/ml in Caso Boullion with 10% FCS was used for the adhesion experiments.
After coating the titanium discs were washed either one time or three times with PBS. The coated and uncoated titanium discs were incubated for 5 min at room temperature with 5 ml PBS. This was repeated two more times. In the third circle the titanium discs were incubated for 1 h at room temperature. Before removing the PBS solution the titanium discs were turned or swiveled in order to increase the detachment of the antibiotics. Afterwards the titanium discs were transferred into sterile 12 well plates. […]
Afterwards the bacterial suspension was removed and the discs were washed three times with 2.5 ml PBS. […] The agar plates were incubated over night at 37° C. and the next day the colonies were counted.
The mark [10] stands for this setting: 2.5 μg/ml rifampin, 50 μg/ml vancomycin.
Setting [11] is: 100 μg/ml vancomycin, 100 μg/ml gentamicin, 0.01-100 μg/ml rifampin, 1 μg/ml rifampin + 100 μg/ml fosfomycin or gentamicin, FIG. 3a-d.

Where two headings read alike, the source gives them in different places.

Regarding `CCCCCCCCCC(=O)N[C@@H](Cc1c[nH]c2ccccc12)C(=O)N[C@H](CC(N)=O)C(=O)N[C@@H](CC(=O)O)C(=O)N[C@@H]1C(=O)NCC(=O)N[C@@H](CCCN)C(=O)N[C@@H](CC(=O)O)C(=O)N[C@H](C)C(=O)N[C@@H](CC(=O)O)C(=O)NCC(=O)N[C@H](CO)C(=O)N[C@@H]([C@H](C)CC(=O)O)C(=O)N[C@@H](CC(=O)c2ccccc2N)C(=O)O[C@@H]1C` [daptomycin], the “effect on CFU per well of intracellular and adhered S. aureus BAA44” value with S. aureus BAA44 [1] (1.25 μg/ml daptomycin) is given as “good efficacy”; with S. aureus BAA44 [1] (2.5 μg/ml daptomycin), “good efficacy”; in the data set with S. aureus BAA44 [1] (5 μg/ml daptomycin) it was “eradicate the infection completely”; with S. aureus BAA44 [1] (10 μg/ml daptomycin) it was “eradicate the infection completely”.
As for `C[C@@H]1O[C@@H]1P(=O)(O)O` [fosfomycin], the “effect on CFU of S. aureus ATTC 6538P in cell culture supernatant” value with S. aureus ATTC 6538P [2] is “moderate”. Moreover, the “effect on CFU of S. aureus BAA44 in cell culture supernatant” value with S. aureus BAA44 [3] was “relatively small”. Besides, the “effect on CFU per well of intracellular located S. aureus BAA44” value in data set [4] is recorded as “good efficacy”. Further, in data set [5], the “concentrations allowing for intravenous application” value was 100 to 400 µg/mL and the “concentrations allowing for intravenous application, preferred, in serum” value was 132 to 297 µg/mL. The “metabolic activity of infected osteoblastic MG63 cells” value in data set [6] (10 μg/ml fosfomycin, FIG. 3b) was “increases the metabolic activity only slightly”. For the same compound, the “metabolic activity of infected osteoblastic MG63 cells” value in [6] (100 μg/ml fosfomycin, FIG. 3b) is “almost doubled”.
`CO[C@H]1/C=C/O[C@@]2(C)Oc3c(C)c(O)c4c(O)c(c(/C=N/N5CCN(C)CC5)c(O)c4c3C2=O)NC(=O)/C(C)=C\C=C\[C@H](C)[C@H](O)[C@@H](C)[C@@H](O)[C@@H](C)[C@H](OC(C)=O)[C@@H]1C` [rifampin]: in the data set with S. aureus ATTC 6538P [2], the “effect on CFU of S. aureus ATTC 6538P in cell culture supernatant” value is “moderate”. Besides, in the data set on S. aureus BAA44 [3], the “effect on CFU of S. aureus BAA44 in cell culture supernatant” value is given as “hardly any efficacy”. In data set [4], the “effect on CFU per well of intracellular located S. aureus BAA44” value is recorded as “good intracellular potency”. The “overgrowth of the MG63 cells with planktonic S. aureus BAA44” value in the data set with S. aureus BAA44 [1] (2.5 μg rifampin, data not shown) is listed as “prevented efficacious”. Also, in the data set on S. aureus BAA44 [1] (setting [10]), the “effect on CFU per well of intracellular and adhered S. aureus BAA44” value was “less than for vancomycin and daptomycin”. In addition, the “metabolic activity of infected osteoblastic MG63 cells” value in data set [6] (setting [11]) is “reduce the cell death caused by S. aureus ATTC 6538P drastically”. Besides, the “concentration sufficient in increasing the metabolic activity” value in data set [6] (FIG. 3a) was 0.006 µg/mL.
For the compound `O=C(O)c1ccccc1O` [salicylic acid], the “maximum reduction of S. aureus virulence parameters” value in the data set with S. aureus is on record as “approximately 50%”.
In the case of `CN[C@H](CC(C)C)C(=O)N[C@H]1C(=O)N[C@@H](CC(N)=O)C(=O)N[C@H]2C(=O)N[C@H]3C(=O)N[C@H](C(=O)N[C@H](C(=O)O)c4cc(O)cc(O)c4-c4cc3ccc4O)[C@H](O)c3ccc(c(Cl)c3)Oc3cc2cc(c3O[C@@H]2O[C@H](CO)[C@@H](O)[C@H](O)[C@H]2O[C@H]2C[C@](C)(N)[C@H](O)[C@H](C)O2)Oc2ccc(cc2Cl)[C@H]1O` [vancomycin], the “anti-adhesive effect, CFU per titanium disc” value is “reduced the adhesion” in the data set on S. aureus BAA44 [7] (discs washed once), “no reduction of bacterial adhesion” with S. aureus BAA44 [7] (discs washed twice), “anti-adhesive effect after one washing step” in the data set on S. aureus ATTC 6538P [9] (discs washed one time before 1.5 h incubation) and “did not reveal any anti-adhesive effect” in the data set on S. aureus ATTC 6538P [9] (discs washed three times before 1.5 h incubation). For the same compound, in the data set on S. aureus BAA44 [8], the “bactericidal effect of the coating” value is recorded as “could not exhibit any bactericidal effect”. Besides, the “CFU in the supernatant” value in the data set on S. aureus BAA44 [8] (200 μg/cm^2 vancomycin or 300 μg/cm^2 fosfomycin calcium + 70 μg/cm^2 rifampin, FIG. 5d) was “reduced the bacterial growth in the cell culture supernatant compared to the uncoated control slightly”. In addition, the “CFU adhered to the titanium disc” value with S. aureus BAA44 [8] (FIG. 5d) is “more than 50,000 CFU”. Also, the “effect on CFU per well of intracellular and adhered S. aureus BAA44” value with S. aureus BAA44 [1] (setting [10]) is recorded as “several hundred”. The “metabolic activity of infected osteoblastic MG63 cells” value in data set [6] (setting [11]) is “strongly reduced”.

The record behind these values is patent US8921365B2, “Pharmaceutical composition, substrate comprising a pharmaceutical composition, and use of a pharmaceutical composition” (priority 2007, dated 2014).
